Measurements as given in patent publication US5912351A, “Anhydrous 1,4-Dihydropyridines and salts thereof” (Recordati, S.A. Chemical and Pharmaceutical Company, priority 1995, dated 1999).

Experiments:
EAhy-926 = experiment: Cell-mediated oxidation of LDL (MDA), EAhy-926 cells; format: cell-based; conditions: 10 to 100 μM, 22 hours, FIG. 6
Procedure: The antioxidant capacity was evaluated by incubating ethylene-diaminetetraacetic acid free-LDL under sterile conditions with 5 μM Cu++ (100 μg Apo B/ml) in the presence of J774A.1 cells. Oxidation was stopped after 22 hours incubation by addition of butylated hydroxytoluene to the medium (final concentration 40 μM) dissolved in ethanol. To the incubated sample (0.250 ml), was added trichloroacetic acid (0.750 ml, 0.20% w/v) followed by of thiobarbituric acid (0.750 ml, 0.67% w/v). The samples were heated at 100° C. for 20 min, followed by cooling and centrifugation. Malonic dialdehyde equivalents were calculated using 1,1,3,3-tetramethoxypropane as the standard.
Following the procedure in Example 9A, the effects of lercanidipine on cell-mediated oxidation were studied with a different cell line which shares many of the properties of endothelial cells (EAhy-926). (The cells were provided by: Prof. A. Catapano, Pharmacology Dept., Universita Statale--Milano.) (These or other endothelial cells can be obtained as described by C-J. S. Edgall et al., Proc. Nat. AcAd. Sci., 80: 3734-3737, (1983); and Gimbrone, M., Prog. Hemostasis Thromb., 3: 1-28, (1976)). The cells were treated with lercanidipine at a concentration of from about 10 to about 100 μM.

[1] = tested on: LDL, isolated from human plasma; experiment: Chemical (Cu++) oxidation of LDL, conjugated diene formation at 234 nm; format: biochemical; design: Lag time of LDL oxidation: unit not given here
Procedure: The ability of Lercanidipine to function as an antioxidant was evaluated by incubating LDL, isolated from human plasma, for 22 hours with an oxidizing agent (20 μM Cu++) in the presence of different concentrations of the test compounds (0.01 μM-50 μM). The LDL oxidation was followed by monitoring conjugated diene formation with a ultraviolet (UV) spectrometer at 234 nm.
The experimental conditions were as follows. LDL (d=1.019-1.063) were isolated from human pooled plasma by sequential ultracentrifugation at 4° C. and 40,000 rpm in a 50 Ti rotor, using a L5-50 ultracentrifuge (Beckman, Palo Alto, Calif.). The LDL were then dialyzed against 0.15 M NaCl containing 0.01% ethylenediaminetetraacetic acid pH 7.4, sterilized by filtration through a […] millipore filter and stored at 4° C. under nitrogen in the dark until use (up to 3 weeks). Before use, LDL were dialyzed against ethylenediaminetetraacetic acid free phosphate buffered saline, pH 7.4, on Sephadex G-25 columns (PD-10, Pharmacia Fine Chemicals, Uppsala, Sweden). Then the LDL were filtered through a sterile 0.22 μM filter. In a phosphate buffered saline (50 μg lipoprotein protein/ml), the LDL were oxidized by incubation at 25° C. with 20 μM CuSO4 for 3 hours. The lercanidipine solution was prepared as a 10^-2 M stock solution in methanol or ethanol and added as a methanol or ethanol solution (maximum 1% v/v) prior to addition of the copper solution. The effect of lercanidipine on the oxidation of LDL was determined by continuous monitoring of the formation of conjugated dienes by recording the increase in the absorbance at 234 nm at 5 min intervals during a three hour period, against a phosphate buffered saline blank, using a UV spectrophotometer (Beckman DU 640) equipped with a continuous reading and an automatic 6-cell changer. The time prior to the onset of oxidation (lag time) was calculated as the intercept between the line of the maximum slope of the propagation phase and the x-axis.

rat myocytes = experiment: Arterial myocyte migration, micro chemotaxis chamber with fibrinogen; format: cell-based; conditions: 5 hours, fibrinogen 600 μg/ml, FIG. 2
Procedure: Migration of rat myocytes was examined using a 48-well micro chemotaxis chamber (Neuro-Probe, USA). Freshly trypsinized myocytes prepared according to the procedure in Example 4A were suspended in a medium supplemented with 5% fetal calf serum (assay medium). The lower wells, containing 27 μl of the assay medium that included fibrinogen (600 μg/ml) as chemotactic agent, were covered with a polyvinylpyrrolidone-free polycarbonate filter ([…]). Fifty μl of the cell suspension (1×10^6 cells/ml) were placed in the upper compartment with the tested compounds. Incubation was carried out for 5 hours at 37° C. in an atmosphere of 95% air and 5% CO2.
After incubation the filter was removed from the chamber and non-migrated cells were scraped from the upper surface, and the filters washed with phosphate buffered saline three times. The filters were stained with Diff-Quik (Merz-Dade AG, Switzerland). The number of myocytes per 100×high power field that had migrated to the lower surface of the filters was determined microscopically. Six high power fields were counted per sample and the results were averaged.

Compound	LDL oxidation (nanomoles of MDA produced) (EAhy-926)	Lag time of LDL oxidation ([1]; 0.5 μM, 20 μM Cu++)	Lag time of LDL oxidation ([1]; 1.0 μM, 20 μM Cu++)	Lag time of LDL oxidation ([1]; 2.5 μM, 20 μM Cu++, P < 0.05)	Lag time of LDL oxidation ([1]; 5.0 μM, 20 μM Cu++, P < 0.01)	increase of the lag time for LDL oxidation ([1]; 10 μM)	Lag time of LDL oxidation ([1]; 10.0 μM, 20 μM Cu++, P < 0.01)	concentrations significantly suppressing the onset of LDL oxidation ([1]; 20 μM Cu++)	potency relative to lacidipine (LDL oxidation) ([1]; assays herein)	inhibition of myocytes migration (rat myocytes)
COC(=O)C1=C(C)NC(C)=C(C(=O)OC(C)(C)CN(C)CCC(c2ccccc2)c2ccccc2)C1c1cccc([N+](=O)[O-])c1 (racemic) [LE, methyl 1,1,N-trimethyl-N-(3,3-diphenylpropyl)-2-aminoethyl 1,4-dihydro-2,6-dimethyl-4-(3-nitrophenyl)-pyridine-3,5-dicarboxylate]	reduced the oxidation of LDL	45.2 ± 3.7	49.8 ± 4.7	53.6 ± 3.3	73.2 ± 4.8	more than 2 times	112.7 ± 5.2	greater than or equal to 2.5 μM	one order of magnitude higher	–
COC(=O)C1=C(C)NC(C)=C(C(=O)OC(C)(C)CN(C)CCC(c2ccccc2)c2ccccc2)[C@@H]1c1cccc([N+](=O)[O-])c1 [(R)-LE, (R)-(-)METHYL 1,1-N-TRIMETHYL-N-(3,3-DIPHENYLPROPYL)-2-AMINOETHYL 1,4-DIHYDRO-2,6-DIMETHYL-4-(3-NITROPHENYL)PYRIDINE-3,5-DICARBOXYLATE]	–	–	–	–	–	–	–	–	–	most pronounced effect
